Converted amounts (≈) assume the structure as drawn.
Columns and labels:
[1] = test system: Peripheral blood mononuclear cells (PBMCs); experiment: MTT cell viability assay, PBMC (normal cells); format: cell-based; conditions: Homo sapiens, n = 3
Procedure: Jurkat and THP-1 cell lines were purchased from the American Type Culture Collection (ATCC, Rockville, MD, USA); Jurkat is a human lymphocytic cell line representing acute T-cell leukemia, and THP-1 is a monocytic cell line that represents acute myelogenous leukemia (AML). Jurkat and THP-1 cells were maintained in RPMI 1640 medium (Sigma) supplemented with 10% heat-inactivated fetal bovine serum (FBS) (Gibco Cat No. 16140071, Waltham, MA USA), 200 μg/mL penicillin, 200 μg/mL streptomycin, 400 μg/mL neomycin (GIBCO, Cat No. 15640-055), 5 μg/mL amphotericin, and 1 mM sodium pyruvate (all from Sigma Chemical Co., Saint Louis, MO, USA; Cat Nos. A9528-50 MG, M7522-100ML, and S8636-100ML, respectively). The cells were maintained at 37 °C in a humidified atmosphere with 5% CO2. The culture medium was exchanged with fresh medium every 2–3 days. Peripheral blood mononuclear cells (PBMCs) were isolated from normal human venous blood. Further, 10 milliliters of human blood was mixed with 10 mL of RPMI-1640 containing 50 µL of heparin and gradually poured over 1 mL of HISTOPAQUE®-1119 (Sigma). The plasma was removed by centrifugation at 3000 rpm for 30 min. The peripheral blood mononuclear cell-containing layer was collected with a pipette and diluted in 4 mL of PBS. PBMCs were harvested by centrifugation at 1500 rpm for 10 min at room temperature, resuspended in RPMI-1640 with 10% FBS, and incubated at 37 °C in 5% CO2 humidified air.
Cell viability was determined by measuring the mitochondrial activity of live cells via the metabolism of the tetrazolium substrate 3-(4,5-dimethylthiazol-2-yl)-2,5-diphenyl tetrazolium bromide (MTT) and converting it to purple formazan crystals. Briefly, the cells (2 × 10^4 cells/well) were treated with 25, 50, 100, 200, or 400 μg/mL extract diluted in DMSO (at a final concentration of 0.5%) and incubated for 12, 24, or 48 h. Catalposide and specioside were tested at concentrations of 20, 50, and 100 μg/mL for 12, 24, and 48 h. For apicidin, 0.5, 1, and 2 μM apicidin were tested for 24 and 48 h. Doxorubicin was used as a reference standard drug (positive control). After treatment, the medium was discarded; 200 μL of RPMI 1640 medium without phenol red containing 0.5 mg/mL MTT (Sigma Chemical Co., Saint Louis, MO, USA; Cat. No. M2128-500MG) was then added to each well. The plates were incubated for four hours at 37 °C with 5% CO2 in a humidified atmosphere. The medium was discarded, and 100 μL of DMSO was added to solubilize the formazan crystals. The absorbance was measured with an ELISA microplate reader at 492 nm (ELx800; BioTek Instruments Inc., Winooski, VT, USA). The percentage of viable cells was calculated on the basis of the nontreated control (taken as 100%). The IC50 (concentration causing a 50% reduction in cellular viability) values for all the tested compounds were evaluated in Excel using the nonlinear regression curve method. Three independent assays were performed, each in triplicate.

THP-1 cells [2] = experiment: Flow cytometric apoptosis, Annexin V-CF647/7-AAD; format: cell-based, human; conditions: THP-1, 24 h (Figure S5)
Procedure: In 96-well plates, 8 × 10^4 cells were treated with 25, 50, and 100 µg/mL extract and 400 µM doxorubicin (positive control) for 24 and 48 h. The cells were washed with 1X PBS, and apoptotic cells were detected by staining with 100 µL of Annexin V-CF647 and 5 µL of the 7-AAD Apoptosis Annexin Red Kit (FCCH100108 FlowCellect, Millipore, Darmstadt, Germany). The cells were incubated at room temperature for 15 min in the dark and analyzed on a Guava Millipore flow cytometer (Merck Millipore, Bedford, MA, USA) using InCyte software (version 3.1, Merck Millipore). The percentage of annexin V-positive cells was evaluated.

THP-1 cells [3] = experiment: Cell cycle analysis by flow cytometry; format: cell-based, human; conditions: THP-1 (Figure S6)
Procedure: After treatment with the extract, 7 × 10^4 cells were harvested, washed with PBS, fixed with 200 µL of ice-cold 70% ethanol, and maintained at 4 °C for 4 h before staining. The cell pellet was washed in 1X PBS, resuspended in 200 µL of Guava Cell Cycle reagent (#4500-0220, Millipore), and incubated in the dark at 37 °C for 30 min before analysis with a Guava flow cytometer (Merck Millipore, Bedford, MA, USA) using InCyte software (version 3.1, Merck Millipore).. Centrifugation was performed at 1200 rpm for 5 min at room temperature for each step.

BAX = experiment: RT-qPCR BAX mRNA expression; format: cell-based, human; conditions: THP-1, catalposide 44 and 66 μg/mL, specioside 20, 40 and 60 μg/mL
Procedure: (§1) After treatment, mRNA extraction was performed using the RNeasy Plus Mini Kit (Qiagen, Germantown, MD, USA; Cat No. 74134). The mRNA was quantified with a NanoDrop 2000c (Thermo Fisher Scientific, Waltham, MA, USA). The expression of the MAPK14 (gene encoding p38), BCL2, and BAX genes was evaluated by qRT–PCR and quantified with the 2^−ΔΔCt method in the Applied Biosystems StepOnePlus Real-Time PCR System (Applied Biosystems, Foster City, CA, USA), which uses predesigned TaqMan Gene Expression Assays (codes […], Hs00608023_m1, and Hs00180269_m1, respectively) (Applied Biosystems, Foster City, CA, USA) and the TaqMan® RNA-to-CT TM 1-Step Kit (Applied Biosystems, Foster City, CA, USA, Cat No. 4392653). The reaction mixture was incubated at 48 °C for 15 min and 95 °C for 10 min and then cycled (40 cycles) at 95 °C for 15 s and 60 °C for 1 min. GAPDH was used as an endogenous control.

BCL2 = experiment: RT-qPCR BCL2 mRNA expression; format: cell-based, human; conditions: THP-1, catalposide 44 μg/mL, specioside 40 μg/mL
Procedure: as §1

What does the source list for O=C(O[C@H]1[C@@H]2C=CO[C@@H](O[C@@H]3O[C@H](CO)[C@@H](O)[C@H](O)[C@H]3O)[C@@H]2[C@@]2(CO)O[C@@H]12)c1ccc(O)cc1 [Catalposide, catalposide]?
IC50 ([1]; 12 h): 126 ± 2.8 µg/mL (≈ 260 µM); IC50 ([1]; 24 h): 87.7 ± 3.1 µg/mL (≈ 182 µM); IC50 ([1]; 48 h): 43.4 ± 3.4 µg/mL (≈ 90 µM); apoptosis compared with control (THP-1 cells [2]): increased apoptosis; percentage of cells in the G0/G1 phase compared with control (THP-1 cells [3]): the increase was significant; expression of Bax mRNA with APC pretreatment (BAX): increased; expression of Bcl-2 mRNA with APC (BCL2): decreased

How did the IC50 ([1]; 12 h) turn out when O=C(/C=C/c1ccc(O)cc1)O[C@H]1[C@@H]2C=CO[C@@H](O[C@@H]3O[C@H](CO)[C@@H](O)[C@H](O)[C@H]3O)[C@@H]2[C@@]2(CO)O[C@@H]12 [Specioside] was run?
Its IC50 is 165 ± 3.1 µg/mL (≈ 325 µM).

What about the IC50 ([1]; 24 h) of the same molecule?
The IC50 was 70.7 ± 3.7 µg/mL (≈ 139 µM).

What about the IC50 ([1]; 48 h) of the same molecule?
Its IC50 is 54.2 ± 3.7 µg/mL (≈ 107 µM).

What about the “apoptosis compared with control” value (THP-1 cells [2]) of the same molecule?
Its value is “increased apoptosis”.

What about the “percentage of cells in the G0/G1 phase compared with control” value (THP-1 cells [3]) of the same molecule?
The value was “the increase was significant”.

What about the “expression of Bax mRNA with APC pretreatment” value (BAX) of the same molecule?
Its value is “increased”.

And the “expression of Bcl-2 mRNA with APC” value (BCL2)?
The value was “decreased”.

From article PMC11396062, “The n-Butanol Extract Obtained from the Inner Bark of Tabebuia rosea (Bertol.) DC, Specioside, and Catalposide Induce Leukemia Cell Apoptosis in the Presence of Apicidin” (Molecules, 2024)
